# Measured values from article PMC9135679 (Cell Reports, 2022).
# Experiments:
# [1] = molecular target: DQ5 (HLA-DQA1*01:01/DQB1*05:01) (Homo sapiens, UniProt P01909+P01920, A157S/A45G/A70V/C70R/D89V/E106S/E118A/E183D/E77G/F83G/G63E/H151Q/H199R/H252R/H253Q/I129T/I235V/I88M/INS77G/K197Q/L107V/L117V/L119Y/L178F/L71W/L74F/L85Q/L91A/L98M/M46L/N214S/P87R/Q116E/Q256R/Q57E/Q76K/R102G/R240Q/R75S/R78G/S102Y/S185I/S41F/S97I/T103A/T109R/T121G/T122I/T172A/T86R/V148I/V68A/V73E/Y34C/Y58G/Y62H); assay: Fluorescence polarization competition peptide binding assay, DQ5; conditions: Figure 5E, described in words
# [2] = test system: T cell clones with partially HLA-matched APCs (LG2, 9068, MN605); assay: T cell clone stimulation, IFN-γ ELISA; format: cell-based, human; conditions: for dose-dependent reactivity relative to the SARS-CoV-2 peptide: 10-fold dilution series 1-10^−4 μg/mL, 24 hours
# [3] = test system: in vitro expanded T cell lines; assay: IFN-γ ELISpot, T cells expanded in vitro with peptides or peptide pools; format: cell-based, human; conditions: HCoV S pool-expanded lines from 3 convalescent COVID-19 donors; pool deconvolution; 1 μg/mL per peptide; positive by DFR2X
# [4] = test system: PBMC from COVID-19, vaccinated, seronegative and pre-pandemic donors; assay: IFN-γ ELISpot, ex vivo PBMC; format: cell-based, human; conditions: of 10 convalescent COVID-19 donors analyzed
substance,measurement,setting,value
SALEDLLFSKVVTSGLG [NL63-146],binding of homolog peptides to DQ5 relative to S811–831,[1],substantially weaker binding
same,dose-dependent reactivity relative to the SARS-CoV-2 peptide,[2]; […],approximately 10 fold weaker
"S986–1,006: SARS-CoV-2 spike candidate epitope, overlapping peptides 198/199",donors recognizing the pair of overlapping peptides,[3],single
same,donors showing ex vivo responses,[4],1 donors
SSSRSFFEDLLFDKVKL [HKU1-151],binding of homolog peptides to DQ5 relative to S811–831,[1],binds more strongly than SARS-CoV-2
same,dose-dependent reactivity compared with S811–826,"[2]; clone #49, cyan group (DQ5, CoV2/HKU1)",similar
same,dose-dependent reactivity relative to the SARS-CoV-2 peptide,"[2]; clone #120, gold group (DP4, CoV2/HKU1)",approximately 10 fold weaker
RVAGRSAIEDILFSKLV [229E-115],binding of homolog peptides to DQ5 relative to S811–831,[1],substantially weaker binding
